Series [1] can be described thus: Determination of CLint in mouse microsomes (microsomal stability). Format: in vitro ADME. The settings on record: female CD-1 mouse microsomes. The protocol:
Microsomal stability was assessed on a liquid handling platform (Tecan Freedom EVO-2 200 MCA384, Männedorf, Switzerland) using pooled female CD-1 mouse microsomes. Compounds (1 µM final) were pre-incubated with microsomes (final 0.5 mg/mL) for 5 min at 37 °C in phosphate buffer (50 mM, pH 7.4), which was followed by the start of the incubation by the addition of cofactor NADPH (final 1.5 mM). […] Incubations were carried out in singlicate. Aliquots were taken at time points of 0, 5, 10, 20, and 30 min. Additionally, two control samples (0 and 30 min) lacking the addition of NADPH were included in order to flag compounds with non-microsomal metabolism. After incubation, the samples were quenched by adding sample aliquots from four different compound incubations to a two-fold volume of acetonitrile (ACN) for bioanalytical cocktailing designed to avoid analytical interference. After centrifugation, the supernatants were analyzed by a standard reversed-phase liquid chromatography assay coupled to tandem mass spectrometry (UHPLC-MS/MS) (for details, see the Supplementary Materials).
The data were subjected to post-acquisition analysis by the Analyst software (version 1.7.2), and the percentage of compound remaining (defined as the ratio of the peak area at a given time point and that at the 0 min time point) was plotted against the incubation time. The first-order elimination rate constant (kel) was derived by non-linear regression using Biorails version 5.10.22/Morphit version 8.0 (The Edge Software Consultancy, Guildford, UK), and CLint values (expressed in µL/min/mg) were obtained by normalizing kel with the microsome concentration.

The nature of series [2]: Unbound fraction in the microsome incubation (fu,mic) by rapid equilibrium dialysis. Format: in vitro ADME, human. The conditions noted are these: for fu,mic: experimental unbound fraction in microsome incubation. Here is the method:
(§1) The free fraction in mouse plasma, in the microsome incubation, and in the hepatocyte incubation was determined using rapid equilibrium dialysis (RED) in Teflon-coated 96-well RED devices. Test compounds were added as DMSO stocks to the donor matrix at 0.5 µM (final DMSO concentration of 0.5%) and dialyzed against phosphate buffer (70 mM, pH 7.4) in the receiver compartment for 4 h at 37 °C.
(§2) The donor matrices differed for the various unbound fractions. […] Mouse serum was dialyzed overnight to exchange the carbonate with a phosphate buffer and was then used as a donor matrix in the experiment (50% serum in 70 mM phosphate buffer, pH 7.4). For fu,mic, human liver microsomes were used as a surrogate for mouse microsomes as a donor matrix in the experiment (0.8 mg protein/mL in 70 mM phosphate buffer, pH 7.4). For fu,hep, mouse hepatocytes were inactivated by incubating overnight at room temperature and then used as a donor matrix in the experiment (0.2 million cells/mL in 70 mM phosphate buffer, pH 7.4).
(§3) Samples were taken from both compartments after 4 h of incubation and analyzed via UHPLC-MS/MS. The unbound fraction, fu, was calculated as follows: fu=creceiver/cdonor
(§4) The fu values were interconverted from one matrix concentration to another using the following formula: fu2=fu1/M2/M1−fu1·M2/M1−1 where fu2 at matrix concentration M2 can be calculated from the fu1 value at matrix concentration M1.
(§5) The recovery was calculated to check the mass balance after the experiment by adding the total compound levels in both the donor and receiver compartments.
Background: Equilibrium dialysis compares concentrations on both sides of a semipermeable membrane.

Series [3] has as its system female CD-1 mouse. Nature of the series: IVIVE of mouse clearance from microsomes (well-stirred model, regression correction). The settings on record: for Fold obs. / pred. (mic.) CL,b,u - Kilford / in vitro (mic.) pred. CLint,b - Kilford / in vitro (mic.) pred. CLint,b,u - Kilford: Kilford fu,mic. From the text:
Compounds with phase II metabolism were removed from the microsome set (N = 25). […] The following regression equations were derived for microsomes and hepatocytes, respectively: log predicted CLint = 0.8 * log scaled CLint + 0.6 and log predicted CLint = 0.6 * log scaled CLint + 0.8, with CLint expressed in mL/min/kg.
According to Sohlenius-Sternbeck et al., the following equations were used for IVIVE: scaled CLint,b=in vitro CLint∗microsomes/hepatocytes/gram of liver∗liver weight/body weight∗fu,p/fu,inc∗Rb
The physiological scaling factors, taken from Simcyp^TM version 13/1 (Certara), were 48 mg of microsomal protein per gram of liver (MPPGL), 101.7 × 10^6 hepatocytes per gram of liver (HPGL), a liver weight of 1.46 g, and a body weight of 0.025 kg. For microsomes and hepatocytes, fu,mic and fu,hep, were used as the unbound fraction in the incubation (fu,inc), respectively. predicted CLint,b=10^(log scaled CLint∗slope+intercept)
For microsomes, a slope of 0.8 and an intercept of 0.6 were used, and for hepatocytes, a slope of 0.6 and an intercept of 0.8, according to the regression equations derived above. predicted CL,b=pred. CLint,b∗QH/pred. Clint,b+QH
CLp/Rb observed CLint,b=QH∗obs. CL,b/QH−obs. CL,b
All unbound clearance terms were calculated by dividing the respective clearance by fu,p. predicted/observed CL,b,u=pred./obs. CL,b/fu,p
The above-described approach was applied for the IVIVE of clearance of the data set analyzed in this study. Additionally, in order to evaluate the impact of the Kilford calculations as a surrogate for the experimentally determined free fraction in the in vitro systems, clearance was extrapolated using the Kilford equations [16] using the same regression coefficients.

The nature of series [4]: Unbound fraction in the hepatocyte incubation (fu,hep) by rapid equilibrium dialysis. The format is in vitro ADME, mouse. The conditions noted are these: for fu,hep: experimental unbound fraction in hepatocyte incubation. The protocol:
as §1, §2, §3, §4, §5

Where [5] appears, read: microsomes, experimental fu,mic.
Setting [6] is: recovery in equilibrium dialysis.

Here are results for four molecules from publication PMC12029992, “Beyond-Rule-of-Five Compounds Are Not Different: In Vitro–In Vivo Extrapolation of Female CD-1 Mouse Clearance Based on Merck Healthcare KGaA Compound Set” (Pharmaceuticals, 2025).

In the case of `O=C(O)c1cc(-c2ccc(F)cc2F)ccc1O` [MSC001], the “Microsome CLint” value in series [1] worked out at 17.8 µL/min/mg. For the same molecule, the “fu,mic” value in series [2] came to 91.70%. In addition, the “fu,mic recovery” value in series [2] (recovery in fu,mic dialysis) amounted to 98%. Besides, in series [3] (microsomes), the “Fold obs. / pred. (mic.) CL,b,u - Kilford” value is 0.5, the “in vitro (mic.) pred. CLint,b - Kilford” value is reported as 5.69 mL/min/kg and the “in vitro (mic.) pred. CLint,b,u - Kilford” value is 334.02 mL/min/kg. Also, in series [3] (setting [5]), the “Fold obs. / pred. (mic.) CL,b,u - exp. fu,mic” value is 0.5, the “in vitro (mic.) pred. CLint,b - exp. fu,mic” value came out at 5.96 mL/min/kg and the “in vitro (mic.) pred. CLint,b,u - exp. fu,mic” value was found to be 349.34 mL/min/kg. In series [4], the “fu,hep” value came out at 97.45%. For the same molecule, the “fu,hep recovery” value in series [4] (recovery in fu,hep dialysis) stood at 232%.

Regarding `CNC(=O)c1cc(Oc2ccc3nc(N[C@@H]4CCCC[C@H]4O)sc3c2)ccn1` [MSC003], the “Microsome CLint” value in series [1] was 20.5 µL/min/mg. In addition, the “fu,mic” value in series [2] is 87.21%. Also, in series [2] (recovery in fu,mic dialysis), the “fu,mic recovery” value worked out at 98%. Besides, in series [3] (microsomes), the “Fold obs. / pred. (mic.) CL,b,u - Kilford” value was 0.528, the “in vitro (mic.) pred. CLint,b - Kilford” value is listed as 13.72 mL/min/kg and the “in vitro (mic.) pred. CLint,b,u - Kilford” value is reported as 179.53 mL/min/kg. In addition, in series [3] (setting [5]), the “Fold obs. / pred. (mic.) CL,b,u - exp. fu,mic” value amounted to 0.5, the “in vitro (mic.) pred. CLint,b - exp. fu,mic” value amounted to 14.24 mL/min/kg and the “in vitro (mic.) pred. CLint,b,u - exp. fu,mic” value is 186.35 mL/min/kg. In addition, the “fu,hep” value in series [4] was found to be 100.00%. The “fu,hep recovery” value in series [4] (recovery in fu,hep dialysis) was 80%.

For `COc1cccc(OCCCN)c1-c1cc(Nc2cnc(C#N)cn2)n[nH]1` [MSC020], in series [1], the “Microsome CLint” value amounted to 165.3 µL/min/mg. In addition, in series [2], the “fu,mic” value was 58.66%. The “fu,mic recovery” value in series [2] (recovery in fu,mic dialysis) came out at 61%. Further, in series [3] (microsomes), the “Fold obs. / pred. (mic.) CL,b,u - Kilford” value is listed as 1.3, the “in vitro (mic.) pred. CLint,b - Kilford” value is listed as 148.30 mL/min/kg and the “in vitro (mic.) pred. CLint,b,u - Kilford” value came out at 772.42 mL/min/kg. Besides, in series [3] (setting [5]), the “Fold obs. / pred. (mic.) CL,b,u - exp. fu,mic” value is 1.1, the “in vitro (mic.) pred. CLint,b - exp. fu,mic” value is listed as 214.87 mL/min/kg and the “in vitro (mic.) pred. CLint,b,u - exp. fu,mic” value is 1119.12 mL/min/kg. The “fu,hep” value in series [4] was 91.30%. Further, the “fu,hep recovery” value in series [4] (recovery in fu,hep dialysis) is 50%.

Turning to `N#Cc1c[nH]c2c(C(=O)N3CCN(CCc4ccc(F)cc4)CC3)cccc12` [MSC213], the “Microsome CLint” value in series [1] is recorded as 212.8 µL/min/mg. Further, in series [2], the “fu,mic” value came to 35.01%. In addition, the “fu,mic recovery” value in series [2] (setting [6]) was found to be 87%. For the same molecule, in series [3] (from microsomes), the “in vitro (mic.) pred. CLint,b - Kilford” value is on record as 59.38 mL/min/kg and the “in vitro (mic.) pred. CLint,b,u - Kilford” value came out at 1278.61 mL/min/kg. In series [3] (from microsomes, exp. fu,mic), the “in vitro (mic.) pred. CLint,b - exp. fu,mic” value was determined as 127.90 mL/min/kg and the “in vitro (mic.) pred. CLint,b,u - exp. fu,mic” value was determined as 2754.05 mL/min/kg. Moreover, the “Fold obs. / pred. (mic.) CL,b,u - Kilford” value in series [3] (microsomes) amounted to 1.7. In series [3] (microsomes, exp. fu,mic), the “Fold obs. / pred. (mic.) CL,b,u - exp. fu,mic” value amounted to 1.1. Also, in series [4], the “fu,hep” value was 87.81%. Also, the “fu,hep recovery” value in series [4] (setting [6]) is 136%.
